Assay: Western blot analysis for "B" compounds
Assay type: cell-based
Settings: read-out: Traditional Western Degradation Potency (DC50)
Summary of the method: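 Compound-treated cells lysed in RIPA buffer with protease inhibitors; equal protein (BCA) run on 10% SDS-PAGE, transferred to PVDF and probed with target antibodies. Band intensities quantified by densitometry and normalized to GAPDH.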

With `O=C1CCC(N2C(=O)c3cc4c(cc3C2=O)CCN(C(=O)CN2CC3(CCN(c5ccc([C@@H]6c7ccc(O)cc7CC[C@@H]6c6ccccc6)cc5)CC3)C2)CC4)C(=O)N1` (stereo partly drawn) [Compound B42, 2-(2,6-dioxopiperidin-3-yl)-7-(2-(7-(4-((1R,2S)-6-hydroxy-2-phenyl-1,2,3,4-tetrahydronaphthalen-1-yl)phenyl)-2,7-diazaspiro[3.5]nonan-2-yl)acetyl)-6,7,8,9-tetrahydroazepino[4,5-f]isoindole-1,3(2H,5H)-dione] the DC50 was over 100 nM.

`O=C1CCC(N2C(=O)c3cc4c(cc3C2=O)CN(CC(=O)N2CCC(C(=O)N3CC(Oc5ccc([C@@H]6c7ccc(O)cc7CC[C@@H]6c6ccccc6)cc5)C3)CC2)C4)C(=O)N1` (stereo partly drawn) [Compound B120, 2-(2,6-dioxopiperidin-3-yl)-6-(2-(4-(3-(4-((1R,2S)-6-hydroxy-2-phenyl-1,2,3,4-tetrahydronaphthalen-1-yl)phenoxy)azetidine-1-carbonyl)piperidin-1-yl)-2-oxoethyl)-6,7-dihydropyrrolo[3,4-f]isoindole-1,3(2H,5H)-dione] gave a DC50 of over 100 nM.

With `O=C1CCC(N2C(=O)c3cc4c(cc3C2=O)CN(C2CN(C(=O)C3CCN(c5ccc([C@@H]6c7ccc(O)cc7CC[C@@H]6c6ccccc6)cc5)CC3)C2)C4)C(=O)N1` (mixture of isomers) [Compound B9, 2-(2,6-dioxopiperidin-3-yl)-6-(1-(1-(4-((1R,2S)-6-hydroxy-2-phenyl-1,2,3,4-tetrahydronaphthalen-1-yl)phenyl)piperidine-4-carbonyl)azetidin-3-yl)-6,7-dihydropyrrolo[3,4-f]isoindole-1,3(2H,5H)-dione] the DC50 was 10 to 100 nM.

Molecule `O=C1CCC(N2C(=O)c3cc4c(cc3C2=O)CN(CC(=O)N2CCC3(CC2)CCN(c2ccc([C@@H]5c6ccc(O)cc6CC[C@@H]5c5ccc(F)cc5)cc2)CC3)C4)C(=O)N1` (stereo partly drawn) [Compound B272, 2-(2,6-dioxopiperidin-3-yl)-6-(2-(9-(4-((1R,2S)-2-(4-fluorophenyl)-6-hydroxy-1,2,3,4-tetrahydronaphthalen-1-yl)phenyl)-3,9-diazaspiro[5.5]undecan-3-yl)-2-oxoethyl)-6,7-dihydropyrrolo[3,4-f]isoindole-1,3(2H,5H)-dione] has a DC50 of 10 to 100 nM.

`O=C1CCC(N2C(=O)c3cc4c(cc3C2=O)CN(CC2CN(C(=O)C3CN(c5ccc([C@@H]6c7ccc(O)cc7CC[C@@H]6c6ccccc6)cc5)C3)C2)C4)C(=O)N1` (stereo partly drawn) [Compound B37, 2-(2,6-dioxopiperidin-3-yl)-6-((1-(1-(4-((1R,2S)-6-hydroxy-2-phenyl-1,2,3,4-tetrahydronaphthalen-1-yl)phenyl)azetidine-3-carbonyl)azetidin-3-yl)methyl)-6,7-dihydropyrrolo[3,4-f]isoindole-1,3(2H,5H)-dione] gave a DC50 of over 100 nM.

In the case of `O=C1CCC(N2C(=O)c3cc4c(cc3C2=O)CN(CC(=O)N2CCC3(CC2)CN(c2ccc([C@@H]5c6ccc(O)cc6CC[C@@H]5c5ccccc5)cc2)C3)C4)C(=O)N1` (mixture of isomers) [Compound B186, 2-(2,6-dioxopiperidin-3-yl)-6-(2-(2-(4-((1R,2S)-6-hydroxy-2-phenyl-1,2,3,4-tetrahydronaphthalen-1-yl)phenyl)-2,7-diazaspiro[3.5]nonan-7-yl)-2-oxoethyl)-6,7-dihydropyrrolo[3,4-f]isoindole-1,3(2H,5H)-dione], the DC50 is reported as 10 to 100 nM.

`O=C1CCC(N2C(=O)c3cc4c(cc3C2=O)CN(C(=O)[C@H]2CC[C@H](CN3CC(Nc5ccc([C@@H]6c7ccc(O)cc7CC[C@@H]6c6ccccc6)cc5)C3)CC2)C4)C(=O)N1` (stereo partly drawn) [Compound B112, 2-(2,6-dioxopiperidin-3-yl)-6-((1R,4r)-4-((3-((4-((1R,2S)-6-hydroxy-2-phenyl-1,2,3,4-tetrahydronaphthalen-1-yl)phenyl)amino)azetidin-1-yl)methyl)cyclohexane-1-carbonyl)-6,7-dihydropyrrolo[3,4-f]isoindole-1,3(2H,5H)-dione] showed a DC50 of under 10 nM.

For `O=C1CCC(N2C(=O)c3cc4c(cc3C2=O)CN(CC(=O)N2CCC3(CC2)CCN(c2ccc([C@H]5c6ccc(O)cc6CC[C@H]5c5ccccc5)nc2)CC3)C4)C(=O)N1` (mixture of isomers) [Compound B86, 2-(2,6-dioxopiperidin-3-yl)-6-(2-(9-(6-((1R,2R)-6-hydroxy-2-phenyl-1,2,3,4-tetrahydronaphthalen-1-yl)pyridin-3-yl)-3,9-diazaspiro[5.5]undecan-3-yl)-2-oxoethyl)-6,7-dihydropyrrolo[3,4-f]isoindole-1,3(2H,5H)-dione], the DC50 was over 100 nM.

Molecule `O=C1CCC(N2Cc3c(ccc4c3OC[C@H]3CN(CC5CCN(c6ccc([C@@H]7c8ccc(O)cc8CC[C@@H]7c7ccccc7)cc6)CC5)CCN43)C2=O)C(=O)N1` (stereo partly drawn) [Compound B298, 3-((R)-7-((1-(4-((1R,2S)-6-hydroxy-2-phenyl-1,2,3,4-tetrahydronaphthalen-1-yl)phenyl)piperidin-4-yl)methyl)-1-oxo-1,3,5,5a,6,7,8,9-octahydro-2H-pyrazino[1′,2′:4,5][1,4]oxazino[2,3-e]isoindol-2-yl)piperidine-2,6-dione] has a DC50 of 10 to 100 nM.

Work on `O=C1CCC(N2C(=O)c3cc4c(cc3C2=O)CN(CC(=O)N2CC3(CCN(c5ccc([C@@H]6c7ccc(O)cc7CC[C@@H]6c6ccccc6)cc5)CC3)C2)CC4)C(=O)N1` (mixture of isomers) [Compound B192, 2-(2,6-dioxopiperidin-3-yl)-6-(2-(7-(4-((1R,2S)-6-hydroxy-2-phenyl-1,2,3,4-tetrahydronaphthalen-1-yl)phenyl)-2,7-diazaspiro[3.5]nonan-2-yl)-2-oxoethyl)-5,6,7,8-tetrahydro-1H-pyrrolo[3,4-g]isoquinoline-1,3(2H)-dione] yielded a DC50 of 10 to 100 nM.

`O=C1CCC(N2C(=O)c3cc4c(cc3C2=O)CN(C(=O)CN2CCC3(CC2)CCN(c2ccc([C@@H]5c6ccc(O)cc6CC[C@@H]5c5ccccc5)c(F)c2)C3)C4)C(=O)N1` (mixture of isomers) [Compound B32, 2-(2,6-dioxopiperidin-3-yl)-6-(2-(2-(3-fluoro-4-((1S,2S)-6-hydroxy-2-phenyl-1,2,3,4-tetrahydronaphthalen-1-yl)phenyl)-2,8-diazaspiro[4.5]decan-8-yl)acetyl)-6,7-dihydropyrrolo[3,4-f]isoindole-1,3(2H,5H)-dione] showed a DC50 of over 100 nM.

`O=C1CCC(N2C(=O)c3cc4c(cc3C2=O)CN(CC(=O)N2CCC3(CC2)CCN(c2ccc([C@@H]5c6ccc(-c7cn[nH]c7)cc6CC[C@@H]5c5ccccc5)cc2)CC3)C4)C(=O)N1` (stereo partly drawn) [Compound B324, 2-(2,6-dioxopiperidin-3-yl)-6-(2-oxo-2-(9-(4-((1R,2S)-2-phenyl-6-(1H-pyrazol-4-yl)-1,2,3,4-tetrahydronaphthalen-1-yl)phenyl)-3,9-diazaspiro[5.5]undecan-3-yl)ethyl)-6,7-dihydropyrrolo[3,4-f]isoindole-1,3(2H,5H)-dione] gave a DC50 of over 100 nM.

“2-(2,6-dioxopiperidin-3-yl)-6-((1S,4s)-4-((3-((4-((1R,2S)-6- hydroxy-2-phenyl-1,2,3,4-tetrahydronaphthalen-1- yl)phenyl)amino)azetidin-1-yl)methyl)cyclohexane-1- carbonyl)-6,7-dihydropyrrolo[3,4-f]isoindole-1,3(2H,5H)- dionc [Compound B113]” gave a DC50 of 10 to 100 nM.

Molecule `O=C1CCC(N2C(=O)c3cc4c(cc3C2=O)CC2(C4)CN(C(=O)CN3CC(Oc4ccc([C@@H]5c6ccc(O)cc6CC[C@@H]5c5ccccc5)cc4)C3)C2)C(=O)N1` (stereo partly drawn) [Compound B299, 2′-(2,6-dioxopiperidin-3-yl)-1-(2-(3-(4-((1R,2S)-6-hydroxy-2-phenyl-1,2,3,4-tetrahydronaphthalen-1-yl)phenoxy)azetidin-1-yl)acetyl)-5′,7′-dihydro-1'H-spiro[azetidine-3,6′-cyclopenta[f]isoindole]-1′,3′(2'H)-dione] has a DC50 of over 100 nM.

`O=C1CCC(N2C(=O)c3cc4c(cc3C2=O)CN(C2CCC(C(=O)NC3CN(c5ccc([C@@H]6c7ccc(O)cc7CC[C@@H]6c6ccccc6)cc5)C3)CC2)C4)C(=O)N1` (stereo partly drawn) [Compound B98, 4-(6-(2,6-dioxopiperidin-3-yl)-5,7-dioxo-3,5,6,7-tetrahydropyrrolo[3,4-f]isoindol-2(1H)-yl)-N-(1-(4-((1R,2S)-6-hydroxy-2-phenyl-1,2,3,4-tetrahydronaphthalen-1-yl)phenyl)azetidin-3-yl)cyclohexane-1-carboxamide] showed a DC50 of over 100 nM.

In the case of “3-(6-((1R,4r)-4-(3-((4-((1R,2S)-6-hydroxy-2-phenyl-1,2,3,4- tetrahydronaphthalen-1-yl)phenyl)amino)azetidin-1- yl)cyclohexane-1-carbonyl)-1-oxo-3,5,6,7- tetrahydropyrrolo[3,4-f]isoindol-2(1H)-yl)pipcridinc-2,6-dionc [Compound B109]”, the DC50 is reported as under 10 nM.

For `O=C1CCC(N2C(=O)c3cc4c(cc3C2=O)CN(CC2(F)CCN(CC3CN(c5ccc([C@@H]6c7ccc(O)cc7CC[C@@H]6c6ccccc6)cc5)C3)CC2)C4)C(=O)N1` (stereo partly drawn) [Compound B63, 2-(2,6-dioxopiperidin-3-yl)-6-((4-fluoro-1-((1-(4-((1R,2S)-6-hydroxy-2-phenyl-1,2,3,4-tetrahydronaphthalen-1-yl)phenyl)azetidin-3-yl)methyl)piperidin-4-yl)methyl)-6,7-dihydropyrrolo[3,4-f]isoindole-1,3(2H,5H)-dione], the DC50 was over 100 nM.

In the case of `O=C1CCC(N2C(=O)c3cc4c(cc3C2=O)CN(C2CCC3(CC2)CCN(c2ccc([C@@H]5c6ccc(O)cc6CC[C@@H]5c5ccccc5)cc2)CC3)C4)C(=O)N1` (stereo partly drawn) [Compound B189, 2-(2,6-dioxopiperidin-3-yl)-6-(3-(4-((1R,2S)-6-hydroxy-2-phenyl-1,2,3,4-tetrahydronaphthalen-1-yl)phenyl)-3-azaspiro[5.5]undecan-9-yl)-6,7-dihydropyrrolo[3,4-f]isoindole-1,3(2H,5H)-dione], the DC50 is reported as over 100 nM.

`CN(C1CCC(C(=O)N2Cc3cc4c(cc3C2)C(=O)N(C2CCC(=O)NC2=O)C4=O)CC1)C1CCN(c2ccc([C@@H]3c4ccc(O)cc4CC[C@@H]3c3ccccc3)cc2)CC1` (stereo partly drawn) [Compound B200, 2-(2,6-dioxopiperidin-3-yl)-6-(4-((1-(4-((1R,2S)-6-hydroxy-2-phenyl-1,2,3,4-tetrahydronaphthalen-1-yl)phenyl)piperidin-4-yl)(methyl)amino)cyclohexane-1-carbonyl)-6,7-dihydropyrrolo[3,4-f]isoindole-1,3(2H,5H)-dione] gave a DC50 of 10 to 100 nM.
